Measured values: article PMC10564737, “Structure-based design of a phosphotyrosine-masked covalent ligand targeting the E3 ligase SOCS2” (Nature Communications, 2023)
“And” between values parts separate entries of the source, which are not always exact repeats. Identical values can stand only once.

Target: T1, SBC2 (Homo sapiens, UniProt O14508)
T1 construct: SOCS2 (amino acids 32–198); His6 (N, cleaved yes); made in house; host or cells: E. coli BL21(DE3)
Assay: Covalent fluorescence polarization (FP) probe displacement assay
Format: binding
Text: With the specific covalent modification of Cys111 established, we decided to fully characterize MN551 as a covalent SOCS2 inhibitor. […] (Fig. 2g, h, Supplementary Fig. 9). Due to the covalent nature of the competing inhibitor, a time-dependent reduction in the fraction of protein-bound probe is observed. […] This value illustrates reasonable specificity for a covalent inhibitor, with nonetheless scope for future optimization. In addition to characterizing the kinetic covalency parameters, we have also assessed the stability of the MN551 by monitoring its reactivity (half-life >70 min) with reduced glutathione (GSH) (Supplementary Fig. 10)[35].
To monitor the SBC2-ligand binding kinetics we designed a fluorescein-labeled small-molecule probe - compound 26. The fluorescence polarization (anisotropy) of a threefold serial dilution of 50 µM SBC2 in 10 nM of the probe in 100 mM HEPES pH 7.5, 50 mM NaCl, 0.5 mM TCEP, 2% DMSO was measured to determine the KL (Supplementary Fig. 9A) (BMG Labtech PHERAstar – firmware v1.33). Protein titration and the curves were fitted using GraphPad Prism 9, using one-site fitting models to determine the probe binding constant, KL. Samples were run in triplicate in 384 well plates, using a total volume per well of 16 μL. The bound fraction of the probe is measure using the equation:1 Fb=Af−A/Af−Ab Where,
A time-dependent reduction in probe anisotropy were measured for a 2-fold serial dilution of […] compound MN551 in 10 nM probe +300 μM SBC2. To determine the initial reversible binding affinity, the initial bound fraction of the probe at time = 0, Fbo (the y-intercept in Fb v/s Time plot, Supplementary Fig. 9B) was plotted against MN551 concentration, and the obtained IC50 is then converted to Ki (Supplementary Fig. 9C)[17]. The slope from Fb versus time graph when divided by Fbo gives rate of covalency, kobs. A plot of kobs v/s MN551 concentration using Michaelis–Menten model of GraphPad Prism 9, provides the parameters kinact (maximum potential rate of inactivation) and KI (concentration of MN551 at which kobs = kinact/2) (Supplementary Fig. 9D, E).
The observed first-order rate constant, kobs is related to KI and kinact by the equation:2 kobs=kinactI/KI+I
At [I]«[KI] the above equation is converted to3 […]
The slope from the plot of kobs against concentration of MN551 gives us the covalent efficiency parameter kinact/KI (Supp Fig. 9F)[30],[33].

[1] = MN551 260.308 nM, Cycle 12 (55 min)
[2] = MN551 260.308 nM, Cycle 19 (90 min), n=1
[3] = MN551 364.432 nM, Cycle 6 (25 min)
[4] = MN551 364.432 nM, Cycle 12 (55 min)
[5] = MN551 364.432 nM, Cycle 19 (90 min), n=1
[6] = MN551 510.204 nM, Cycle 6 (25 min)
[7] = MN551 510.204 nM, Cycle 12 (55 min)
[8] = MN551 510.204 nM, Cycle 19 (90 min), n=1
[9] = MN551 714.286 nM, Cycle 6 (25 min)
[10] = MN551 714.286 nM, Cycle 12 (55 min)
[11] = MN551 714.286 nM, Cycle 19 (90 min), n=1
[12] = MN551 781.25 nM, Cycle 6 (25 min)
[13] = MN551 1000 nM, Cycle 6 (25 min)
[14] = MN551 1000 nM, Cycle 12 (55 min)
[15] = MN551 1000 nM, Cycle 19 (90 min), n=1

T1 sequence (O14508 32-198): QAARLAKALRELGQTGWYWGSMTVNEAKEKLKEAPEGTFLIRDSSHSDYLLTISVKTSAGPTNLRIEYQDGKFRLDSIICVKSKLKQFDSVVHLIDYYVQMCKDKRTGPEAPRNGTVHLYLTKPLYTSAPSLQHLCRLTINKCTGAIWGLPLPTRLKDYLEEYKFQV
T1 sequence (Q15370 1-104 partner limits assumed): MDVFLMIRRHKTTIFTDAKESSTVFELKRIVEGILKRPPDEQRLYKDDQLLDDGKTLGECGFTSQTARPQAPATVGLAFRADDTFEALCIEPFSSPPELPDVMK
T1 sequence (Q15369 17-112 partner limits assumed): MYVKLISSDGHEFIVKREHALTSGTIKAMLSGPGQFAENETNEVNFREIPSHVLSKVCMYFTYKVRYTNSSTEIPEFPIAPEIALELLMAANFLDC

`O=C(CCl)Nc1cccc(CNC(=O)[C@H](Cc2ccc(OP(=O)(O)O)cc2)NC(=O)Cc2ccc(F)cc2)c1` [MN551] was tested, and the Fb (MN551 260.308 nM, Cycle 6 (25 min)) was 0.9065 and 0.9342 and 0.9573, the Anisotropy [1] was 262.5 and 259.9 and 257.4 and the Fb [1] was 0.8574 and 0.8591 and 0.8311. The “Anisotropy data 485,520,520” value [2] was 254.9 and 255 and 252.4, the “Anisotropy normalised (0 nM MN551 = 1, free probe = 0)” value [2] was 0.8373 and 0.852 and 0.8299 and the “Anisotropy normalised (0 nM MN551 = 1, free probe = 0)” value (MN551 260.308 nM, Cycle 20 (95 min), n=1) was 0.8182 and 0.7955 and 0.8068. The “Anisotropy based on Raw Data (485)” value (MN551 364.432 nM, Cycle 7 (30 min)) was 266.3 and 261.1 and 263, the “Normalised anisotropy (0 nM MN551 = 1, free probe = 0)” value (MN551 364.432 nM, Cycle 13 (60 min), n=1) was 0.8082 and 0.788 and 0.7925 and the “Normalised anisotropy (0 nM MN551 = 1, free probe = 0)” value (MN551 364.432 nM, Cycle 14 (65 min), n=1) was 0.8132 and 0.8023 and 0.7716. For the same molecule, the “Normalised anisotropy (0 nM MN551 = 1, free probe = 0)” value (MN551 364.432 nM, Cycle 15 (70 min), n=1) was 0.8109 and 0.8027 and 0.7817, the “Fb, fraction bound” value (MN551 364.432 nM, Cycle 3 (10 min)) was 0.8953 and 0.9033 and 0.8725 and the “Anisotropy data 485,520,520” value [3] was 261.2 and 252.2 and 253.6. For the same molecule, the Fb [3] was 0.8702 and 0.8783 and 0.9647, the Anisotropy [4] was 258 and 255.4 and 255.3 and the Fb [4] was 0.8155 and 0.8159 and 0.8109. The “Anisotropy data 485,520,520” value [5] was 251.5 and 248.8 and 245.6, the “Anisotropy normalised (0 nM MN551 = 1, free probe = 0)” value [5] was 0.8046 and 0.79 and 0.7638 and the “Anisotropy normalised (0 nM MN551 = 1, free probe = 0)” value (MN551 364.432 nM, Cycle 20 (95 min), n=1) was 0.7592 and 0.7548 and 0.7585. The “Anisotropy based on Raw Data (485)” value (MN551 390.625 nM, Cycle 7 (30 min)) was 269.8 and 271.4 and 267.4, the “Fb, fraction bound” value (MN551 390.625 nM, Cycle 2 (5 min)) was 0.9917 and 0.9704 and 0.9496 and the “Fb, fraction bound” value (MN551 390.625 nM, Cycle 3 (10 min)) was 0.9862 and 0.9672 and 0.9437. For the same molecule, the Anisotropy (MN551 390.625 nM, Cycle 12 (55 min)) was 270.6 and 267.1 and 265.1, the “Anisotropy based on Raw Data (485)” value (MN551 510.204 nM, Cycle 7 (30 min)) was 261.7 and 259.3 and 261 and the “Anisotropy based on Raw Data (485)” value (MN551 510.204 nM, Cycle 8 (35 min)) was 261.5 and 258.9 and 258.8. The “Normalised anisotropy (0 nM MN551 = 1, free probe = 0)” value (MN551 510.204 nM, Cycle 13 (60 min), n=1) was 0.7484 and 0.7226 and 0.7442, the “Normalised anisotropy (0 nM MN551 = 1, free probe = 0)” value (MN551 510.204 nM, Cycle 14 (65 min), n=1) was 0.7755 and 0.7213 and 0.7092 and the “Normalised anisotropy (0 nM MN551 = 1, free probe = 0)” value (MN551 510.204 nM, Cycle 15 (70 min), n=1) was 0.7476 and 0.7154 and 0.7087. For the same molecule, the “Fb, fraction bound” value (MN551 510.204 nM, Cycle 3 (10 min)) was 0.8721 and 0.8651 and 0.8107, the “Anisotropy data 485,520,520” value [6] was 257.3 and 244.3 and 249.4 and the Fb [6] was 0.8302 and 0.8538 and 0.9038. The Anisotropy [7] was 252.2 and 248.3 and 248.9, the Fb [7] was 0.7614 and 0.7478 and 0.7495 and the “Anisotropy data 485,520,520” value [8] was 243.6 and 240.1 and 238.9. The “Anisotropy normalised (0 nM MN551 = 1, free probe = 0)” value [8] was 0.7286 and 0.703 and 0.6987, the “Anisotropy normalised (0 nM MN551 = 1, free probe = 0)” value (MN551 510.204 nM, Cycle 20 (95 min), n=1) was 0.6867 and 0.6831 and 0.6676 and the “Anisotropy based on Raw Data (485)” value (MN551 714.286 nM, Cycle 7 (30 min)) was 257.5 and 256.2 and 255.9. For the same molecule, the “Anisotropy based on Raw Data (485)” value (MN551 714.286 nM, Cycle 8 (35 min)) was 256 and 254.7 and 255.3, the “Normalised anisotropy (0 nM MN551 = 1, free probe = 0)” value (MN551 714.286 nM, Cycle 14 (65 min), n=1) was 0.7189 and 0.6657 and 0.6727 and the “Normalised anisotropy (0 nM MN551 = 1, free probe = 0)” value (MN551 714.286 nM, Cycle 15 (70 min), n=1) was 0.6832 and 0.6708 and 0.6558. For the same molecule, the “Fb, fraction bound” value (MN551 714.286 nM, Cycle 3 (10 min)) was 0.8072 and 0.8019 and 0.7869, the “Anisotropy data 485,520,520” value [9] was 249.8 and 245.7 and 246.8 and the Fb [9] was 0.8082 and 0.8312 and 0.8793. For the same molecule, the Anisotropy [10] was 245.4 and 244 and 241.6, the Fb [10] was 0.698 and 0.7066 and 0.6795 and the Fb (MN551 714.286 nM, Cycle 13 (60 min)) was 0.6773 and 0.6691 and 0.6737. The “Anisotropy data 485,520,520” value [11] was 235.3 and 235.8 and 229.2, the “Anisotropy normalised (0 nM MN551 = 1, free probe = 0)” value [11] was 0.6487 and 0.66 and 0.6045 and the “Anisotropy normalised (0 nM MN551 = 1, free probe = 0)” value (MN551 714.286 nM, Cycle 20 (95 min), n=1) was 0.6238 and 0.6124 and 0.601. The “Anisotropy based on Raw Data (485)” value (MN551 781.25 nM, Cycle 7 (30 min)) was 264.8 and 264.3 and 257.5, the “Fb, fraction bound” value (MN551 781.25 nM, Cycle 2 (5 min)) was 0.8861 and 0.914 and 0.9072 and the “Fb, fraction bound” value (MN551 781.25 nM, Cycle 3 (10 min)) was 0.8842 and 0.8716 and 0.861. For the same molecule, the “Anisotropy data 485,520,520” value [12] was 261.7 and 267.5 and 267.1, the Fb [12] was 0.8257 and 0.8639 and the Anisotropy (MN551 781.25 nM, Cycle 12 (55 min)) was 254.6 and 253.4 and 251.5. For the same molecule, the “Anisotropy based on Raw Data (485)” value (MN551 1000 nM, Cycle 7 (30 min)) was 254.7 and 249.8 and 251.7, the “Anisotropy based on Raw Data (485)” value (MN551 1000 nM, Cycle 8 (35 min)) was 251.7 and 250.9 and 246 and the “Normalised anisotropy (0 nM MN551 = 1, free probe = 0)” value (MN551 1000 nM, Cycle 14 (65 min), n=1) was 0.5934 and 0.6045 and 0.5749. The “Normalised anisotropy (0 nM MN551 = 1, free probe = 0)” value (MN551 1000 nM, Cycle 15 (70 min), n=1) was 0.5741 and 0.5664 and 0.5538, the “Fb, fraction bound” value (MN551 1000 nM, Cycle 3 (10 min)) was 0.7627 and 0.7851 and 0.7345 and the “Anisotropy data 485,520,520” value [13] was 247.9 and 241.8 and 240.6. The Fb [13] was 0.7763 and 0.812, the Anisotropy [14] was 234.4 and 236.4 and 233.2 and the Fb [14] was 0.5955 and 0.6337 and 0.5988. For the same molecule, the Fb (MN551 1000 nM, Cycle 13 (60 min)) was 0.5631 and 0.5917 and 0.6014, the “Anisotropy data 485,520,520” value [15] was 220.4 and 223.8 and 219.7 and the “Anisotropy normalised (0 nM MN551 = 1, free probe = 0)” value [15] was 0.5053 and 0.54 and 0.5121. The “Anisotropy normalised (0 nM MN551 = 1, free probe = 0)” value (MN551 1000 nM, Cycle 20 (95 min), n=1) was 0.4971 and 0.4767 and 0.4821.
